Literature values, collected in patent US20120245171A1, “BENZPYRAZOLE DERIVATIVES AS INHIBITORS OF PI3 KINASES” (GLAXO GROUP LIMITED, priority 2009, published 2012).
Like-named read-outs stand apart in the source and are kept apart here.

Assays:
Class I PI3-kinases = conditions: each of the Class I PI3-kinases
neutrophils [1] = conditions: treatment of neutrophils; Thelen et al. 1994
neutrophils [2] = conditions: for superoxide release: neutrophils
CK2 protein kinase = CK2 protein kinase (Homo sapiens, UniProt P68400)
Chain of CK2 protein kinase (P68400 whole entry): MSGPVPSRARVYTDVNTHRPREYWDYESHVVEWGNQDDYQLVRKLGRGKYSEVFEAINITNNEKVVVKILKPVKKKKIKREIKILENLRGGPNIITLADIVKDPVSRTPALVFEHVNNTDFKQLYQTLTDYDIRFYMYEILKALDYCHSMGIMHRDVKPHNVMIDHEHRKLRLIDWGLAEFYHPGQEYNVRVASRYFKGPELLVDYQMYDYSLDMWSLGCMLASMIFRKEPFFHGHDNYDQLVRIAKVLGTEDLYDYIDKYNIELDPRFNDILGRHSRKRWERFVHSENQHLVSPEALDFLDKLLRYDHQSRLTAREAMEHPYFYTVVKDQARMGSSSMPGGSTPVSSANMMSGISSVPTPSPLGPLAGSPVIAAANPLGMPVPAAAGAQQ

Row | IC50 (Class I PI3-kinases; Fruman et al. 1998, read-out: IC50 against each of these PI3-kinases) | IC50 (CK2 protein kinase) | Structure (SMILES) | IC50 (Class I PI3-kinases; read-out: IC50 against each of the various Class I PI3-kinases) | fMLP-induced respiratory burst response (neutrophils [1]) | neutrophil migration (neutrophils [2]) | superoxide release (neutrophils [2])
1 | – | – | COC[C@H]1OC(=O)c2coc3c2[C@@]1(C)C1=C(C3=O)[C@@H]2CCC(=O)[C@@]2(C)C[C@H]1OC(C)=O [wortmannin] | 0.001 to 0.01 µM | prevents | block | block
2 | 15 to 20 µM | 5 to 10 µM | O=c1cc(N2CCOCC2)oc2c(-c3ccccc3)cccc12 [LY294002] | – | – | block | block
